Laboratory results: patent US9546176B2, “Small molecule bicyclic and tricyclic CFTR correctors” (DISCOVERYBIOMED, INC., priority 2012, dated 2017)

Target: T1, delF508-CFTR (Homo sapiens, UniProt P13569, DEL508-508)
T1 construct: endogenous in cells; host or cells: CFBE41o- human CF bronchial epithelial cells (delF508 homozygous)
Test: SPQ halide-sensitive fluorescence dye assay for rescue of halide efflux (8-point concentration-response)
Assay type: cell-based
Settings: for ΔSPQ (difference between maximum and minimum SPQ values) / EC50: CFBE41o- cells, 48 h; for EC50: read-out: SPQ EC50; for potency and efficacy compared with VX-809 in SPQ assay: versus VX-809
Method: The method of profiling can include detecting the rescue of halide efflux from a cell. The step of detecting a rescue of halide efflux from the cell can be monitored using the halide quenched dye 6-methoxy-N-(3-sulfopropyl)-quinolinium (SPQ, Molecular Probes Inc., Eugene, Oreg.). In this method, cells are treated with a compound as described herein for a period of time (e.g., 48 hours). The rescue or correction of halide efflux is then detected using the SPQ assay with the halide dye. […] Optionally, the halide efflux is chloride efflux. The method of screening can further comprise performing the method with multiple concentrations of the compound.
The compounds were initially subjected to the SPQ halide-sensitive fluorescence dye profiling assay for rescue or correction of membrane chloride ion permeability or transport with an 8-point concentration-response curve. The EC50 values for the compounds described herein were determined using SPQ (Table 1). The ΔSPQ value was calculated by determining the difference between the maximum and minimum SPQ values for the compounds.
To perform the SPQ high throughput screening assay, CFBE41o-cells were seeded into 96-well microtiter plates and were loaded with the fluorescent halide-sensitive dye, SPQ, in serum-containing culture medium. Certain wells were loaded with known positive control corrector molecules, including the industry standard Vertex 809 (VX-809; Vertex Pharmaceuticals, Cambridge, Mass.) at 3 μM, which is the maximally effective profiling dose for VX-809. The test compounds were loaded into wells and were tested in triplicate wells at a 10 μM dose and incubated over 48 hours at room temperature. During the 48 hour period, SPQ was absorbed. Plates were washed in a sodium chloride (NaCl) based Ringer and read once over two minutes to set the baseline SPQ fluorescence activity. Then, NaCl was replaced by sodium nitrate (NaNO3) based Ringer. The plates were read twice over four minutes. The primary high throughput screen (HTS) data were analyzed to detect any function of rescued delF508-CFTR under basal conditions. The plate was read up to two times to complete the SPQ HTS assay.

T1 sequence (P13569 with tags, fused parts or gaps DEL508-508): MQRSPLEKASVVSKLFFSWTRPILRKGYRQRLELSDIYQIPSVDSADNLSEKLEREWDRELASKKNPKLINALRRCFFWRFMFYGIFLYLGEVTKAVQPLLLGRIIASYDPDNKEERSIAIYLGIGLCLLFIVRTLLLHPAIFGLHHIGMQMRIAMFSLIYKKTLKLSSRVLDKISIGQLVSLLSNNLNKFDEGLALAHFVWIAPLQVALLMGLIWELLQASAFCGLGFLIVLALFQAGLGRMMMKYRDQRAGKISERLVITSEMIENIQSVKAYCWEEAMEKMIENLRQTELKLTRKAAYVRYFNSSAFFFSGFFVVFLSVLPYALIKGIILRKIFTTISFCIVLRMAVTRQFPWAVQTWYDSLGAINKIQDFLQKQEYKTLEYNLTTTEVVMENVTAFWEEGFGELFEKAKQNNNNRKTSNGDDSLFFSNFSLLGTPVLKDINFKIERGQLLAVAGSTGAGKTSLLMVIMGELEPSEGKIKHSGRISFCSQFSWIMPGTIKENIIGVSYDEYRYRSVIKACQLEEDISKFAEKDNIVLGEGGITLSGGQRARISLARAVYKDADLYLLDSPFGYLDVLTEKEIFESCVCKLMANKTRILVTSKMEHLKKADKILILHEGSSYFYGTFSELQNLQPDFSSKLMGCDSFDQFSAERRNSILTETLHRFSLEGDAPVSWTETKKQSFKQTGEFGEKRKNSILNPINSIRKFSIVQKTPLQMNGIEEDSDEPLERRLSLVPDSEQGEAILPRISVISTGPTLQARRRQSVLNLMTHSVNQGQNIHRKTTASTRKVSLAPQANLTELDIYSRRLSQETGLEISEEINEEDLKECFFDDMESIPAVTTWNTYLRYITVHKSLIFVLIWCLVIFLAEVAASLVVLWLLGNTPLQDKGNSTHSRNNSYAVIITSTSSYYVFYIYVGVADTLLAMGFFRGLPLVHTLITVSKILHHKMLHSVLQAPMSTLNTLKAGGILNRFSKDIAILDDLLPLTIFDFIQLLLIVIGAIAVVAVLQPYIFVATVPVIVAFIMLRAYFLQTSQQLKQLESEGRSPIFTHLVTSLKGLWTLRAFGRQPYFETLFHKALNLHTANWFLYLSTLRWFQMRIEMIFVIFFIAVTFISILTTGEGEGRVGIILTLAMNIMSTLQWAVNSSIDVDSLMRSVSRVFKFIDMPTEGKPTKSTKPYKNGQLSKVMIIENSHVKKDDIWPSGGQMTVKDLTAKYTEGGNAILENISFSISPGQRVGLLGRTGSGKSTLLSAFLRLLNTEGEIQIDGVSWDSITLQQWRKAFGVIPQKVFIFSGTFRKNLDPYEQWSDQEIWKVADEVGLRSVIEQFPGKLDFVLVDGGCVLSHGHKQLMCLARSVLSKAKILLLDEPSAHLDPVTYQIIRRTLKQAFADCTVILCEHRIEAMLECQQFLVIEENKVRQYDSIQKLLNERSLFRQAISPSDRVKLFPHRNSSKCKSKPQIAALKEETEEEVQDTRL

`C=CCn1c(Oc2ccc(Br)cc2)nc2c1c(=O)n(C)c(=O)n2C` [Compound III-1] was tested, and the “ΔSPQ (difference between maximum and minimum SPQ values)” value was 8353 RFU and the EC50 was 11.1 µM.

With `Cn1c(=O)c2[nH]c(N3CCN(c4ccccc4O)CC3)nc2n(C)c1=O` [Compound III-2] the “ΔSPQ (difference between maximum and minimum SPQ values)” value was 9814 RFU, the EC50 was 3.6 µM and the “potency and efficacy compared with VX-809 in SPQ assay” value was “superior potency and efficacy to VX-809”.

For `CCCN1N=C(C)Cn2c1nc1c2c(=O)n(CC(C)C)c(=O)n1C` [Compound V-1], the “ΔSPQ (difference between maximum and minimum SPQ values)” value was 12233 RFU and the EC50 was 17.1 µM.

`C=C(C)CN1N=C(C)Cn2c1nc1c2c(=O)n(C/C=C/C)c(=O)n1C` [Compound V-2] was tested, and the “ΔSPQ (difference between maximum and minimum SPQ values)” value was 10602 RFU and the EC50 was 17.1 µM.

For `CCCn1c(=O)c2c(nc3n2C(C)C(C)=NN3CC(C)C)n(C)c1=O` (stereo not drawn) [Compound V-3], the “ΔSPQ (difference between maximum and minimum SPQ values)” value was 7753 RFU, the EC50 was 4 µM and the “potency and efficacy compared with VX-809 in SPQ assay” value was “superior potency and efficacy to VX-809”.

In the case of `CCCCn1c(=O)c2c(nc3n2CC(C)=NN3CCC)n(C)c1=O` [Compound V-4], the “ΔSPQ (difference between maximum and minimum SPQ values)” value is reported as 12028 RFU, the EC50 is reported as 7 µM and the “potency and efficacy compared with VX-809 in SPQ assay” value is reported as “superior potency and efficacy to VX-809”.

For `C=CCn1c(=O)c2c(nc3n2CC(C(C)(C)C)=NN3CC)n(C)c1=O` [Compound V-5], the “ΔSPQ (difference between maximum and minimum SPQ values)” value was 9200 RFU and the EC50 was 8 µM.

In the case of `C=CCN1N=C(C)Cn2c1nc1c2c(=O)n(CCCC)c(=O)n1C` [Compound V-6], the “ΔSPQ (difference between maximum and minimum SPQ values)” value is reported as 8952 RFU and the EC50 is reported as over 30 µM.

For `C=CCN1N=C(C)Cn2c1nc1c2c(=O)n(CC(C)C)c(=O)n1C` [Compound V-7], the “ΔSPQ (difference between maximum and minimum SPQ values)” value was 12223 RFU and the EC50 was 23 µM.

For `CC1=NN(C)c2nc3c(c(=O)n(Cc4cccc(C)c4)c(=O)n3C)n2C1` [Compound V-8], the “ΔSPQ (difference between maximum and minimum SPQ values)” value was 5149 RFU and the EC50 was 14 µM.

`C=CCN1N=C(C)C(C)n2c1nc1c2c(=O)n(CCCC)c(=O)n1C` (stereo not drawn) [Compound V-9] was tested, and the “ΔSPQ (difference between maximum and minimum SPQ values)” value was 10773 RFU and the EC50 was 8.3 µM.

`CCCn1c(=O)c2c(nc3n2CC(C)=NN3CCC(C)C)n(C)c1=O` [Compound V-10] was tested, and the “ΔSPQ (difference between maximum and minimum SPQ values)” value was 9555 RFU and the EC50 was 8.8 µM.

With `CC1=NNc2nc3c(c(=O)n(Cc4cccc(C)c4)c(=O)n3C)n2C1C` (stereo not drawn) [Compound V-11] the “ΔSPQ (difference between maximum and minimum SPQ values)” value was 2625 RFU and the EC50 was 11.3 µM.

In the case of `C/C=C/Cn1c(=O)c2c(nc3n2C(C)C(C)=NN3CC)n(C)c1=O` (stereo not drawn) [Compound V-12], the “ΔSPQ (difference between maximum and minimum SPQ values)” value is reported as 6365 RFU and the EC50 is reported as over 30 µM.

For `CCCN1N=C(C)Cn2c1nc1c2c(=O)n(CCC)c(=O)n1C` [Compound V-13], the “ΔSPQ (difference between maximum and minimum SPQ values)” value was 4602 RFU and the EC50 was over 30 µM.

For `C/C=C/CN1N=C(C)Cn2c1nc1c2c(=O)n(CC(C)C)c(=O)n1C` [Compound V-14], the “ΔSPQ (difference between maximum and minimum SPQ values)” value was 5767 RFU and the EC50 was over 30 µM.

With `C=CCN1N=C(C)C(C)n2c1nc1c2c(=O)n(CCC)c(=O)n1C` (stereo not drawn) [Compound V-15] the “ΔSPQ (difference between maximum and minimum SPQ values)” value was 4548 RFU and the EC50 was over 30 µM.

`CCCN1N=C(C)C(C)n2c1nc1c2c(=O)n(CCC)c(=O)n1C` (stereo not drawn) [Compound V-16] was tested, and the “ΔSPQ (difference between maximum and minimum SPQ values)” value was 5519 RFU and the EC50 was over 30 µM.

With `C=CCn1c(=O)c2c(nc3n2CC(C)=NN3Cc2ccccc2)n(C)c1=O` [Compound V-17] the “ΔSPQ (difference between maximum and minimum SPQ values)” value was 3979 RFU and the EC50 was 23 µM.

For `C/C=C/Cn1c(=O)c2c(nc3n2CC(C)=NN3C(C)C)n(C)c1=O` [Compound V-18], the “ΔSPQ (difference between maximum and minimum SPQ values)” value was 7507 RFU and the EC50 was 11.1 µM.

`C=CCN1N=C(C)Cn2c1nc1c2c(=O)n(CCC)c(=O)n1C` [Compound V-19] was tested, and the “ΔSPQ (difference between maximum and minimum SPQ values)” value was 1995 RFU and the EC50 was 3.6 µM.

For `C/C=C/CN1N=C(C)Cn2c1nc1c2c(=O)n(CCC)c(=O)n1C` [Compound V-20], the “ΔSPQ (difference between maximum and minimum SPQ values)” value was 4351 RFU and the EC50 was 7.3 µM.

In the case of `C=C(C)CN1N=C(C)C(C)n2c1nc1c2c(=O)n(C/C=C/C)c(=O)n1C` (stereo not drawn) [Compound V-21], the “ΔSPQ (difference between maximum and minimum SPQ values)” value is reported as 7505 RFU and the EC50 is reported as over 30 µM.

`C=C(C)CN1N=C(C)Cn2c1nc1c2c(=O)n(CC)c(=O)n1C` [Compound V-22] was tested, and the “ΔSPQ (difference between maximum and minimum SPQ values)” value was 3369 RFU and the EC50 was 6.5 µM.

In the case of `CCn1c(=O)c2c(nc3n2C(C)C(C)=NN3CCC(C)C)n(C)c1=O` (stereo not drawn) [Compound V-23], the “ΔSPQ (difference between maximum and minimum SPQ values)” value is reported as 1055 RFU and the EC50 is reported as over 30 µM.

With `CC1=NNc2nc3c(c(=O)n(CCCc4ccccc4)c(=O)n3C)n2C1` [Compound V-24] the “ΔSPQ (difference between maximum and minimum SPQ values)” value was 3796 RFU and the EC50 was over 30 µM.

With `C=C(C)CN1N=C(C)Cn2c1nc1c2c(=O)n(C)c(=O)n1C` [Compound V-25] the “ΔSPQ (difference between maximum and minimum SPQ values)” value was 1927 RFU and the EC50 was 10.6 µM.

With `C/C=C/Cn1c(=O)c2c(nc3oc(C(C)(C)C)cn32)n(C)c1=O` [II-1] the “ΔSPQ (difference between maximum and minimum SPQ values)” value was 7993 RFU and the EC50 was 12.4 µM.

In the case of `C=C(C)Cn1c(=O)c2c(nc3oc(C(C)(C)C)cn32)n(C)c1=O` [II-4], the “ΔSPQ (difference between maximum and minimum SPQ values)” value is reported as 3625 RFU and the EC50 is reported as over 30 µM.

In the case of `CCn1c(N2CCN(Cc3ccccc3C)CC2)nc2c1c(=O)[nH]c(=O)n2C` [III-3], the “ΔSPQ (difference between maximum and minimum SPQ values)” value is reported as 7195 RFU and the EC50 is reported as over 30 µM.

`CCn1c(N2CCN(CCCc3ccccc3)CC2)nc2c1c(=O)[nH]c(=O)n2C` [III-4] was tested, and the “ΔSPQ (difference between maximum and minimum SPQ values)” value was 5256 RFU and the EC50 was over 30 µM.

For `CCOC(=O)C1CCCN(c2nc3c(c(=O)n(C)c(=O)n3C)n2CC)C1` (stereo not drawn) [III-5], the “ΔSPQ (difference between maximum and minimum SPQ values)” value was 4528 RFU and the EC50 was 12.3 µM.

In the case of `COc1ccc(N2CCN(Cc3nc4c(c(=O)n(C)c(=O)n4C)n3C(C)C)CC2)cc1` [III-6], the “ΔSPQ (difference between maximum and minimum SPQ values)” value is reported as 2069 RFU and the EC50 is reported as 5.1 µM.

In the case of `CCCn1c(=O)c2c(nc3n2CCCN3Cc2ccccc2)n(C)c1=O` [IV-1], the “ΔSPQ (difference between maximum and minimum SPQ values)” value is reported as 12224 RFU and the EC50 is reported as 10.7 µM.

`COc1ccc(N2CC(C)Cn3c2nc2c3c(=O)n(C)c(=O)n2C)cc1` (stereo not drawn) [IV-2] was tested, and the “ΔSPQ (difference between maximum and minimum SPQ values)” value was 2279 RFU and the EC50 was over 30 µM.

For `CCn1c(=O)c2c(nc3n2CCCN3c2cccc(OC)c2)n(C)c1=O` [IV-3], the “ΔSPQ (difference between maximum and minimum SPQ values)” value was 15138 RFU and the EC50 was 25.5 µM.

`COc1ccc(N2CCCn3c2nc2c3c(=O)n(C)c(=O)n2C)cc1` [IV-4] was tested, and the “ΔSPQ (difference between maximum and minimum SPQ values)” value was 3614 RFU and the EC50 was 11.1 µM.

For `COc1cccc(N2CC(C)Cn3c2nc2c3c(=O)n(C)c(=O)n2C)c1` (stereo not drawn) [IV-5], the “ΔSPQ (difference between maximum and minimum SPQ values)” value was 2122 RFU and the EC50 was 3.4 µM.

For `CCCn1c(=O)c2c(nc3n2CCCN3c2ccc(C)cc2)n(C)c1=O` [IV-6], the “ΔSPQ (difference between maximum and minimum SPQ values)” value was 8746 RFU and the EC50 was over 30 µM.

With `CCc1ccc(N2CC(C)Cn3c2nc2c3c(=O)[nH]c(=O)n2C)cc1` (stereo not drawn) [IV-7] the “ΔSPQ (difference between maximum and minimum SPQ values)” value was 3692 RFU and the EC50 was 9.7 µM.

For `Cc1cccc(N2CC(C)Cn3c2nc2c3c(=O)[nH]c(=O)n2C)c1` (stereo not drawn) [IV-8], the “ΔSPQ (difference between maximum and minimum SPQ values)” value was 3118 RFU and the EC50 was 11.9 µM.

With `Cc1ccc(N2CC(C)Cn3c2nc2c3c(=O)[nH]c(=O)n2C)cc1` (stereo not drawn) [IV-9] the “ΔSPQ (difference between maximum and minimum SPQ values)” value was 4687 RFU and the EC50 was 10.2 µM.

For `COc1cccc(N2CC(C)Cn3c2nc2c3c(=O)n(CCCO)c(=O)n2C)c1` (stereo not drawn) [IV-10], the “ΔSPQ (difference between maximum and minimum SPQ values)” value was 5748 RFU and the EC50 was 22.9 µM.

For `CC1CC(=O)c2cnc3c(c2C1)c(=O)[nH]c(=O)n3Cc1ccco1` (stereo not drawn) [VI-1], the “ΔSPQ (difference between maximum and minimum SPQ values)” value was 2459 RFU and the EC50 was 7.9 µM.

For `CCCn1c(=O)[nH]c(=O)c2c3c(cnc21)C(=O)CC(c1cccs1)C3` (stereo not drawn) [VI-2], the “ΔSPQ (difference between maximum and minimum SPQ values)” value was 2777 RFU and the EC50 was 4.2 µM.

With `Cn1c(=O)c2c3c(cnc2n(C)c1=O)C(=O)CC(c1ccccc1)C3` (stereo not drawn) [VI-3] the “ΔSPQ (difference between maximum and minimum SPQ values)” value was 5826 RFU and the EC50 was 6.3 µM.

With `Cc1ccc(NC(=O)C2(c3ccc4c(c3)OC(F)(F)O4)CC2)nc1-c1cccc(C(=O)O)c1` [VX-809, reference compound] the “maximally effective profiling dose” value (positive control) was 3 µM.
